# Read-outs that look alike come from different tables or passages of the source.
# How the values were obtained:
# Staph. epi = test: Agar dilution MIC, Staph. epi; type: cell-based; conditions: read-out: MIC
# Excerpt: (§1) The following Tables present typical minimum inhibitory concentrations (MIC's) in μg/ml for the compounds when evaluated against the indicated microorganisms.
# [1] = test system: Peptostreptococcus anaerobius; test: Susceptibility of anaerobic cocci, agar-dilution, 24 hour MIC; type: cell-based
# Excerpt: (§2) A typical and preferred compound provided by this invention is 7-(2-naphthylglycylamido)-3-methyl-3-cephem-4-carboxylic acid, the compound of Example 3. The antibacterial activity of this compound and several others of the invention has been determined in standard in vitro agar dilution assays against a variety of gram positive microorganisms. The following Tables present typical minimum inhibitory concentrations (MIC's) in μg/ml for the compounds when evaluated against the indicated microorganisms. MIC's for several known compounds are also presented for comparison.
# (§3) Susceptibility of Anaerobic Cocci
# (§4) Isolates by the Agar-Dilution
# (§5) Method-24 hour MIC's (μg/ml)
# Peptococcus Constellatus = test: as above; type: cell-based; conditions: Streptococcus constellatus, isolate 1468
# Excerpt: as §2, §3, §4, §5
# P. magnus = test: as above; type: cell-based; conditions: Finegoldia magna
# Excerpt: as §2, §3, §4, §5
# [2] = test system: Peptostreptococcus intermedius; test: as above; type: cell-based
# Excerpt: as §2, §3, §4, §5
# P. prevoti = test: as above; type: cell-based; conditions: isolate 1293
# Excerpt: as §2, §3, §4, §5
# [3] = test system: Peptococcus Asaccharolyticus; test: as above; type: cell-based; conditions: Peptoniphilus asaccharolyticus, isolate 1344
# Excerpt: as §2, §3, §4, §5
# Bacteroides fragilis = test: Susceptibility of anaerobes, agar-dilution, 24 hour MIC; type: cell-based
# Propionibacterum acnes = test: as above; type: cell-based
# Excerpt: as §2, §3, §4, §5
# [4] = test system: β-lactamase (organism 1082E); test: Stability to β-lactamases, 1082E; type: biochemical; conditions: lower numbers mean greater stability
# Strep. PN = test: Agar dilution MIC, Strep. PN; type: cell-based; conditions: Table I, strain PARK; read-out: MIC
# Excerpt: as §1
# H. influ. = test: Agar dilution MIC, H. influenza; type: cell-based; conditions: Table III, strain 102; read-out: MIC
# Excerpt: as §1
# Klebsiella = test: Agar dilution MIC, Klebsiella; type: cell-based; conditions: Klebsiella; Table I, strain X26; read-out: MIC
# Excerpt: as §2
# β-lactamase (TEM) = test: Stability to β-lactamases, TEM; type: biochemical; conditions: lower numbers mean greater stability
# Staph. aureus = test: Agar dilution MIC, Staph. aureus; type: cell-based; conditions: Staphylococcus aureus, read-out: MIC
# Excerpt: as §1
# [5] = Oral absorption and blood levels in rodents; type: in vivo
# [6] = Plasma concentration after intravenous dose in rats; type: in vivo; conditions: rat, intravenous 20 mg/kg
# Protocol: For example, when 7-(2-naphthylglycylamido)-3-methyl-3-cephem-4-carboxylic acid was administered to rats at an intravenous dose of 20 mg/kg, the plasma concentration after one hour was 18.6 μg/ml; after four hours, 14.1 μg/ml; and after twenty-four hours, the plasm level was still measured as 1.96 μg/ml.
# [7] = test system: β-lactamase (organism 1313G); test: Stability to β-lactamases, 1313G; type: biochemical; conditions: lower numbers mean greater stability
# Strep. A = test: Agar dilution MIC, Strep. A; type: cell-based; conditions: Table I, strain C203; read-out: MIC
# Excerpt: as §2
# B. Fragilis = test: Expanded spectrum MIC, B. Fragilis; type: cell-based; conditions: Bacteroides fragilis, Table III, read-out: MIC
# Excerpt: as §2
# [8] = test system: β-lactamase (organism 265A); test: Stability to β-lactamases, 265A; type: biochemical; conditions: lower numbers mean greater stability
# [9] = test system: β-lactamase (organism PS185); test: Stability to β-lactamases, PS185; type: biochemical; conditions: lower numbers mean greater stability
compound,measurement,setting,value
"CC1=C(C(=O)O)N2C(=O)C(NC(=O)[C@H](N)c3ccc4ccccc4c3)C2SC1 (stereo partly drawn) [Example 3, D-7-(2-naphthylglycylamido)-3-methyl-3-cephem-4-carboxylic acid tetrahydrate]",MIC,"Staph. epi; Table I, strain 222",0.5 µg/mL
same,MIC,"Staph. epi; Table I, strain EPI1",1 µg/mL
same,MIC,"Staph. epi; Table II expanded spectrum, strain EPI1",8 µg/mL
same,MIC,"Staph. epi; Table II, strain 219",0.5 µg/mL
same,MIC,"Staph. epi; Table II, strain 269",2 µg/mL
same,MIC,"Staph. epi; Table II, strain 270",4 µg/mL
same,MIC,"Staph. epi; Table II, strain 285",2 µg/mL
same,MIC,"Staph. epi; Table II, strain 286",1 µg/mL
same,MIC,[1]; isolate 8,≤ 0.125 µg/mL
same,MIC,[1]; isolate 52,0.25 µg/mL
same,MIC,[1]; isolate 1477,≤ 0.125 µg/mL
same,MIC,Peptococcus Constellatus,0.25 µg/mL
same,MIC,P. magnus; isolate 1401,0.25 µg/mL
same,MIC,P. magnus; isolate 1477,0.5 µg/mL
same,MIC,[2]; isolate 1264,1 µg/mL
same,MIC,[2]; isolate 1524,1 µg/mL
same,MIC,[2]; isolate 1624,1 µg/mL
same,MIC,P. prevoti,0.5 µg/mL
same,MIC,[3],≤ 0.125 µg/mL
same,MIC,Bacteroides fragilis; isolate 200,32 µg/mL
same,MIC,Bacteroides fragilis; isolate 206,16 µg/mL
same,MIC,Bacteroides fragilis; isolate 3625,16 µg/mL
same,MIC,Bacteroides fragilis; isolate 7371A,16 µg/mL
same,MIC,Bacteroides fragilis; isolate 19671,> 64 µg/mL
same,MIC,Bacteroides fragilis; isolate 19681,16 µg/mL
same,MIC,Propionibacterum acnes; isolate 44,4 µg/mL
same,MIC,Propionibacterum acnes; isolate 79,8 µg/mL
same,MIC,Propionibacterum acnes; isolate 101,8 µg/mL
same,MIC,Propionibacterum acnes; isolate 104,8 µg/mL
same,MIC,Propionibacterum acnes; isolate 105,4 µg/mL
same,MIC,Propionibacterum acnes; isolate 5191,0.25 µg/mL
same,MIC,Propionibacterum acnes; isolate 5227,0.25 µg/mL
same,MIC,Propionibacterum acnes; isolate 5228,8 µg/mL
same,MIC,Propionibacterum acnes; isolate 5229,8 µg/mL
same,MIC,Propionibacterum acnes; isolate 5246,8 µg/mL
same,Stability to β-lactamases,[4],26
same,MIC,Strep. PN,0.5 µg/mL
same,MIC,H. influ.,32 µg/mL
same,MIC,Klebsiella,2 µg/mL
same,Stability to β-lactamases,β-lactamase (TEM),3
same,MIC,"Staph. aureus; Table I, strain V41",8 µg/mL
same,MIC,"Staph. aureus; Table I, strain X1.1",0.5 µg/mL
same,MIC,"Staph. aureus; Table I, strain X400",64 µg/mL
same,MIC,"Staph. aureus; Table II, strain S224",0.5 µg/mL
same,MIC,"Staph. aureus; Table II, strain S225",0.5 µg/mL
same,MIC,"Staph. aureus; Table II, strain S226",1 µg/mL
same,MIC,"Staph. aureus; Table II, strain S227",1 µg/mL
same,MIC,"Staph. aureus; Table II, strain S228",0.5 µg/mL
same,MIC,"Staph. aureus; Table II, strain S229",1 µg/mL
same,MIC,"Staph. aureus; Table II, strain S230",0.5 µg/mL
same,MIC,"Staph. aureus; Table II, strain S231",0.5 µg/mL
same,MIC,"Staph. aureus; Table II, strain S234",1 µg/mL
same,MIC,"Staph. aureus; Table II, strain S237",1 µg/mL
same,MIC,"Staph. aureus; Table II, strain S238",1 µg/mL
same,MIC,"Staph. aureus; Table II, strain S239",1 µg/mL
same,MIC,"Staph. aureus; Table III expanded spectrum, strain 8725",0.25 µg/mL
same,MIC,"Staph. aureus; Table III, strain 8438",0.25 µg/mL
same,MIC,"Staph. aureus; Table III, strain 8787",0.25 µg/mL
same,MIC,"Staph. aureus; Table III, strain 9050",0.5 µg/mL
same,MIC,"Staph. aureus; Table III, strain 9136",0.25 µg/mL
same,MIC,"Staph. aureus; Table III, strain 9290",1 µg/mL
same,MIC,"Staph. aureus; Table III, strain 9767",1 µg/mL
same,blood levels compared with cefaclor and cephalexin,[5],higher and longer blood levels than cefaclor and cephalexin
same,oral absorption,[5]; oral,efficiently orally absorbed
same,concentration at 1 h,"[6]; 1 hour, read-out: plasma concentration after one hour",18600 ng/mL
same,concentration at 4 h,"[6]; 4 hours, read-out: plasma concentration after four hours",14100 ng/mL
same,concentration at 24 h,"[6]; 24 hours, read-out: plasma level after twenty-four hours",1960 ng/mL
same,Stability to β-lactamases,[7],256
same,MIC,Strep. A,0.5 µg/mL
same,MIC,B. Fragilis; strain 180-821,2 µg/mL
same,MIC,B. Fragilis; strain 10668,32 µg/mL
same,MIC,B. Fragilis; strain 10683,32 µg/mL
same,MIC,B. Fragilis; strain 10695,4 µg/mL
same,MIC,B. Fragilis; strain 10750,16 µg/mL
same,MIC,B. Fragilis; strain 10774,16 µg/mL
same,MIC,B. Fragilis; strain 10817,2 µg/mL
same,MIC,B. Fragilis; strain 10837,16 µg/mL
same,MIC,B. Fragilis; strain 107266,16 µg/mL
same,MIC,B. Fragilis; strain 107268,8 µg/mL
same,Stability to β-lactamases,[8],50
same,Stability to β-lactamases,[9],25

# Reference: US4490370A, “Naphthylglycyl cephalosporin derivatives” (priority 1983, dated 1984)
